According to US7713957B2, “Pharmaceutical composition containing gabapentin or pregabalin and N-type calcium channel antagonist” (Ajinomoto Co., Inc., priority 2002, dated 2010):
Read-outs that look alike come from different tables or passages of the source.

Experiments:
N-type calcium channel = target: T1, N-type calcium channel (Homo sapiens, UniProt Q00975); assay: Antagonistic activity on N-type calcium channel (fluorescence dye method, IMR-32 cells); assay type: cell-based; settings: 10 μM test compound, 60 mM KCl stimulation, 1 μM Nifedipine, read-out: Antagonistic activity on N-type calcium channels at 10 μM Inhibition rate (%)
T1 construct: host or cells: IMR-32 human neuroblastoma cells, differentiated with dibutyl cAMP and 5-bromodeoxyuridine for 10 to 14 days
T1 sequence (Q00975 whole entry): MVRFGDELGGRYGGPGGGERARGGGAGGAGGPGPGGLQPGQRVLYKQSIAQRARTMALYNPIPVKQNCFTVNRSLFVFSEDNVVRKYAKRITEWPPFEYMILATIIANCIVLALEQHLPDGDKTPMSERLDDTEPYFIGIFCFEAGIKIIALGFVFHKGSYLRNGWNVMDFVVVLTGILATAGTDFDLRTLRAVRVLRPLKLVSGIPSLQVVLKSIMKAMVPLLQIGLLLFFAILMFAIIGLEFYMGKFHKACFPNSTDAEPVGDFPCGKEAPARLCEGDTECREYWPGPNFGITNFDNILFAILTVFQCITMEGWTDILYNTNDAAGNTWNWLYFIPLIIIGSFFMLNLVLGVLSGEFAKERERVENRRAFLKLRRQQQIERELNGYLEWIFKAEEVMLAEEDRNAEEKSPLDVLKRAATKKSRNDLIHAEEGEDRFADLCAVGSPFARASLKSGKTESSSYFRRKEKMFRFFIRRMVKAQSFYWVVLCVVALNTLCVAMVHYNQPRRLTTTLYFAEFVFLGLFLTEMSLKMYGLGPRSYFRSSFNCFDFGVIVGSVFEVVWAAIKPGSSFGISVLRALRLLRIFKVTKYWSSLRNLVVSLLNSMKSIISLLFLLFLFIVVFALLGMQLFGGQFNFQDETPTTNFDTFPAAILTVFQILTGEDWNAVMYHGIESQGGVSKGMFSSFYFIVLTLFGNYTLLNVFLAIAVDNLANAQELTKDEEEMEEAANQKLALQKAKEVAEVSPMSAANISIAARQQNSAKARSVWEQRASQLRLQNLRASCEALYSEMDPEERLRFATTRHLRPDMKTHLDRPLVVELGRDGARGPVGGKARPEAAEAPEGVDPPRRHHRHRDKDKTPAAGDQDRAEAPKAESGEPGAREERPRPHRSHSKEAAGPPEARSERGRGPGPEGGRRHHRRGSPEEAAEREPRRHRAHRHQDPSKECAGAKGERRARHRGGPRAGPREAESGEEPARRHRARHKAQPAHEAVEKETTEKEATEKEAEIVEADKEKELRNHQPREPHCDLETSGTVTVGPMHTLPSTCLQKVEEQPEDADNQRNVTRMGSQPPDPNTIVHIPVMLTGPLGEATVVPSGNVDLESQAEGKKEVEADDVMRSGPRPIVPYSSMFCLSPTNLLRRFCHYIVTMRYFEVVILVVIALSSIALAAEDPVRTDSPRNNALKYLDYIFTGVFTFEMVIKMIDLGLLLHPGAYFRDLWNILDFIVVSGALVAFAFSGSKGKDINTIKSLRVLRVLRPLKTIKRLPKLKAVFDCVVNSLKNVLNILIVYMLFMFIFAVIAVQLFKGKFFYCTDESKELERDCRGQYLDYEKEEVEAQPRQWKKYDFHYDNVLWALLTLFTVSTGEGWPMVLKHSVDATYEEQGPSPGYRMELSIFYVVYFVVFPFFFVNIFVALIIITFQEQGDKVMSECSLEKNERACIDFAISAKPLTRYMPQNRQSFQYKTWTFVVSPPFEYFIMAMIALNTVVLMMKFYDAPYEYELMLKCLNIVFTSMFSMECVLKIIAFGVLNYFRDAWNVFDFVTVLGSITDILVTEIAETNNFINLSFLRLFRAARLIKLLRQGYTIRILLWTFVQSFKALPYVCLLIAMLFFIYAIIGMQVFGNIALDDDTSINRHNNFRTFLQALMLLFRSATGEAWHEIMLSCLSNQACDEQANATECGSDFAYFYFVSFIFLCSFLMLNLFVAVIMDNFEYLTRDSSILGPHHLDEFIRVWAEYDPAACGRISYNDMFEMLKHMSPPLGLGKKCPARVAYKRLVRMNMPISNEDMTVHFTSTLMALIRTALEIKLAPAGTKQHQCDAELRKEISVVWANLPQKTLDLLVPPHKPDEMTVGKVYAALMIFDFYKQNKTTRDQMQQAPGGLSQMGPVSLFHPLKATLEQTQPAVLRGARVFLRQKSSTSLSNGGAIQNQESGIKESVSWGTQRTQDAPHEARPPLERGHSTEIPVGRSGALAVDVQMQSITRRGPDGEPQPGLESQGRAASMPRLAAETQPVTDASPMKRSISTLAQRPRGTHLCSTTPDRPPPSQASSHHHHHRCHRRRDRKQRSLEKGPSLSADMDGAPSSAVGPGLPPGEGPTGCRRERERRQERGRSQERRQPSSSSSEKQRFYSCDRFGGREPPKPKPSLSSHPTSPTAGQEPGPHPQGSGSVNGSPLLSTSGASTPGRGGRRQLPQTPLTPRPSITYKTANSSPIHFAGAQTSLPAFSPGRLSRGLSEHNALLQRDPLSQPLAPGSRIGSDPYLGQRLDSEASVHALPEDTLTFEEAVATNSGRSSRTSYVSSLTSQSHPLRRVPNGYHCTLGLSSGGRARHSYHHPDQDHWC
T1 sequence (Q02641 whole entry partner): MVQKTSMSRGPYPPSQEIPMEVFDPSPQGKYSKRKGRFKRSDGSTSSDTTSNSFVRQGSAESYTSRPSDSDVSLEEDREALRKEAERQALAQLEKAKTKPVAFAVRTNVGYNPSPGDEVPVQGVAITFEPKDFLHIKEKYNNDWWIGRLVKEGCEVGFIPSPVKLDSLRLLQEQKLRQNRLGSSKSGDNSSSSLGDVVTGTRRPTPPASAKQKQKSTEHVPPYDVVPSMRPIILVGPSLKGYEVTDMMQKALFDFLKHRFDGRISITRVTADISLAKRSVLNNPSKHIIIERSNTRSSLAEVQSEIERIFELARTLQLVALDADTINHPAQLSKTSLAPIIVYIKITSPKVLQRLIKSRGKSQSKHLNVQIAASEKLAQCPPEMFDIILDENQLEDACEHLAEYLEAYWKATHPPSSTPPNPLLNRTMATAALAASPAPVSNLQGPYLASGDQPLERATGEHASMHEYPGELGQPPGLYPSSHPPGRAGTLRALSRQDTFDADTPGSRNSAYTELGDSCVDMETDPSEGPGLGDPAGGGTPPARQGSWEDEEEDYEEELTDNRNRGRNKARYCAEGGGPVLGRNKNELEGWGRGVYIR
T1 sequence (P54289 25-956 partner limits assumed): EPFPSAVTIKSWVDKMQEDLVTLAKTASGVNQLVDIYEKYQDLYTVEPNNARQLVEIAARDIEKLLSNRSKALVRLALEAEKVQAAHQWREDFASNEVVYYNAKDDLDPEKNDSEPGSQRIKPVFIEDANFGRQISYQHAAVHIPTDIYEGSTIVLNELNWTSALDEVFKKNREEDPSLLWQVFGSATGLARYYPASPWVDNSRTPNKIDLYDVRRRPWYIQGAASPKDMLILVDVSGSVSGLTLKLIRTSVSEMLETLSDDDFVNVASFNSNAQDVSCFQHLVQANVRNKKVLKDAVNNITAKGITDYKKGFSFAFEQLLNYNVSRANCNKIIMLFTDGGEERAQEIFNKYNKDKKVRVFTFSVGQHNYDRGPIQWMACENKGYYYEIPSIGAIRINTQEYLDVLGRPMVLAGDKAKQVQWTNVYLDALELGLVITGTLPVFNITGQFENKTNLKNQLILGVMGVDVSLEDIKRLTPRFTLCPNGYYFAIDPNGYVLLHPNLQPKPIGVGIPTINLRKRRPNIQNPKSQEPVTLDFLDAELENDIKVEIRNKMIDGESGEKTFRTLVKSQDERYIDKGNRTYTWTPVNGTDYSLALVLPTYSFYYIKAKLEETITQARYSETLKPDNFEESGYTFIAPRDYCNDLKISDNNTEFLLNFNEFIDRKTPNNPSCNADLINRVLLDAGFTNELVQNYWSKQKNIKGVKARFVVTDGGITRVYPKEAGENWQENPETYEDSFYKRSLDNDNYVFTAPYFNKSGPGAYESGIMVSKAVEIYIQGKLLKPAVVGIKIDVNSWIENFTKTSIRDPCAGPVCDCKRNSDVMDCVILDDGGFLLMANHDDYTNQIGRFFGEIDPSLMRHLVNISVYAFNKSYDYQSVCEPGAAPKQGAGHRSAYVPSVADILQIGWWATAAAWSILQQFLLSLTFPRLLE
T1 sequence (P54289 957-1103 partner limits assumed): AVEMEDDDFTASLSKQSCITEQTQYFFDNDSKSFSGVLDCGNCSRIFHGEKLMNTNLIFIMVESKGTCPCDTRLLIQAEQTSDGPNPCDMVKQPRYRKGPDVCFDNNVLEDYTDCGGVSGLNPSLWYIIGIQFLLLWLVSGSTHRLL
Procedure: Antagonistic Activity on N-Type Calcium Channel (Fluorescence Dye Method)
Human neuroblastoma cells IMR-32 were obtained from ATCC (American Type Culture Collection). The medium used was a Phenol Red-free Eagle minimum essential medium containing earle's salts supplement (GIBCO) supplemented with 2 mM of L-glutamine (GIBCO), 1 mM of sodium pyruvate (pH 6.5) (GIBCO), antibiotic/antimycotic mixture (GIBCO) and 10% fetal calf serum (Cell Culture Technologies). 3 ml of 1×10^5 cells/ml IMR-32 cells were spread on the glass bottom of a dish (Iwaki Glsss Co., Ltd.) having a diameter of 35 mm which had been treated with poly-L-lysin (SIGMA) and collagen (COLLAGEN VITROGEN 100; Collagen Co.). After the culture for 1 day, 1 mM (final concentration) of dibutyl cAMP and 2.5 μM (final concentration) of 5-bromodeoxyuridine (SIGMA) were added. After the culture for additional 10 to 14 days, the cells were subjected to the activity determination.
The medium for IMR-32 cells thus prepared was replaced with 1 ml of Phenol Red-free and earle's salts supplemented Eagle minimum essential medium (GIBCO) containing 2.5 μM fura-2/AM (Dojin Kagaku, Co.), and the incubation was conducted at 37° C. for 30 minutes. […] Antagonistic activity on N-type calcium channel was determined and analyzed using a fluorescence microscope (Nikon Corporation) and an image analysis device ARGUS 50 (Hamamatsu Photonics). […]

Sprague-Dawley rats = assay: Formalin test in rat pain models (flinching action, second phase); assay type: in vivo
Procedure: Analgesic activities were determined in the formalin test. Four test groups [a control group (given a saline solution) and groups given 30, 100 and 300 mg/kg of gabapentin] each composed of 6 to 7 male Sprague-Dawley rats (SD rats, 9 weeks old) were used for the experiment. Gabapentin was dissolved in a saline solution.
4 ml/kg of a saline solution or gabapentin was orally administered to the rats. Three hours after, the rats were tranquilized with halothane, and 2.5% formalin solution (100 μl) was injected subcutaneously to dorsal surface of the left hindpaw. Immediately thereafter, the rats were awaken from the anesthesia. […] The number of times of retracting action, i.e., flinching action of the hindpaw in which formalin had been injected, was counted for 1 minute at an interval of one minute until 5 minutes after the formalin injection, and for 1 minute at an interval of 5 minutes from 10 to 60 minutes after the injection. […] The total number of times of the flinching action observed 10 to 60 minutes after the formalin injection (the second phase) was taken as the index of the pain action.
Analgesic activities were determined in the formalin test. Four test groups [a control group, a group given the compound A (the compound of Referential Example 11: 3 mg/kg), a group given 100 mg/kg of gabapentin and a group given a combination of 3 mg/kg of the compound A and 100 mg/kg of gabapentin] each composed of 6 to 7 male Sprague-Dawley rats (SD rats, 9 weeks old) were used for the experiment. The administration volume to each group was as follows. In the control group, 5 ml/kg of 0.5% tragacanth solution and 4 ml/kg of a saline solution were given orally to the rats. In the group given the compound A, 5 ml/kg of the compound A suspended in 0.5% tragacanth solution and 4 ml/kg of a saline solution were given orally to them. In the group given gabapentin, 5 ml/kg of 0.5% tragacanth solution and 4 ml/kg of gabapentin dissolved in a saline solution were given orally to them. In the group given a combination of the compound A and gabapentin, 5 ml/kg of the compound A suspended in 0.5% tragacanth solution and 4 ml/kg of gabapentin dissolved in a saline solution were given orally to them.
Analgesic activities were determined in the formalin test. Four test groups [a control group, a group given the compound B (the compound of Referential Example 71: 3 mg/kg), a group given 100 mg/kg of gabapentin and a group given a combination of 3 mg/kg of the compound B and 100 mg/kg of gabapentin] each composed of 6 male Sprague-Dawley rats (SD rats, 9 weeks old) were used for the experiment. The administration volume to each group was as follows. In the control group, 3 ml/kg of polyethylene glycol 400 (PEG) and 4 ml/kg of a saline solution were given orally to the rats. In the group given the compound B, 3 ml/kg of the compound B dissolved in PEG and 4 ml/kg of a saline solution were given orally to them. In the group given gabapentin, 3 ml/kg of PEG and 4 ml/kg of gabapentin dissolved in a saline solution were given orally to them. In the group given the combination of compound B and gabapentin, 3 ml/kg of the compound B dissolved in PEG and 4 ml/kg of gabapentin dissolved in a saline solution were given orally to them.
Analgesic activities were determined in the formalin test. Four test groups [a control group (given a saline solution) and groups given 10, 30 and 100 mg/kg of pregabalin] each composed of 6 male Sprague-Dawley rats (SD rats, 9 weeks old) were used for the experiment. Pregabalin was dissolved in a saline solution. 4 ml/kg of a saline solution or pregabalin was orally administered to the rats.
Analgesic activities were determined in the formalin test.

[1] = patients with post-herpetic neuralgia (Acta Neurol. Scand. 101:359-371, 2000); cited from earlier work
[2] = cited from earlier work
[3] = clinical use; cited from earlier work

SMILES: CC(C)(C)CC(=O)NCCCNC(=O)C=C1c2ccccc2C=Cc2ccccc21 [Example 41]
- inhibition at 10 µM (N-type calcium channel): 76%

SMILES: CC(C)(C)C(=O)NCCC(=O)N1CCC(=C2c3ccccc3C=Cc3ccccc32)CC1 [Referential Example 11, N-{3-[4-(5H-dibenzo[a, d] [7]annulen-5-ylidene)-1-piperidinyl]-3-oxopropyl}-2,2-dimethylpropanamide]
- inhibiting ratio of flinches (Sprague-Dawley rats; Example 2, 3 mg/kg oral, suspended in 0.5% tragacanth): 38%

SMILES: CC(C)(C)C(=O)N[C@H](CO)CCC(=O)N1CCC(=C2c3ccccc3C=Cc3ccccc32)CC1 [Referential Example 71, (S)-N-[4-[4-(5H-dibenzo[a,d] [7]annulen-5-ylidene)-1-piperidinyl]-1-(hydroxylmethyl)-4-oxobutyl]-2.2-dimethylpropanamide]
- inhibiting ratio of flinches (Sprague-Dawley rats; Example 3, 3 mg/kg oral, dissolved in PEG): 16%
- inhibiting ratio of flinches (Sprague-Dawley rats; Example 5, 3 mg/kg oral, dissolved in PEG): 7%

SMILES: NCC1(CC(=O)O)CCCCC1 [gabapentin, 1-(aminomethyl)-cyclohexaneacetic acid]
- inhibiting ratio of flinches (Sprague-Dawley rats; Example 1, 30 mg/kg oral, vs control group): 11%
- inhibiting ratio of flinches (Sprague-Dawley rats; Example 1, 100 mg/kg oral, vs control group): 42%
- inhibiting ratio of flinches (Sprague-Dawley rats; Example 1, 300 mg/kg oral, vs control group): 47%
- inhibiting ratio of flinches (Sprague-Dawley rats; Example 2, 100 mg/kg oral): 47%
- inhibiting ratio of flinches (Sprague-Dawley rats; Example 3, 100 mg/kg oral): 59%
- treatment effectiveness [1]: approximately 60%
- motor function of the body ([2]; whole body administration of 300 mg/kg or more): significant decrease in motor function of the body
- side-effects [3]: somnolence and dizziness

SMILES: CC(C)C[C@H](CN)CC(=O)O [pregabalin, (S)-3-(aminomethyl)-5-methylhexanoic acid]
- inhibiting ratio of flinches (Sprague-Dawley rats; Example 4, 10 mg/kg oral, vs control group): 31%
- inhibiting ratio of flinches (Sprague-Dawley rats; Example 4, 30 mg/kg oral, vs control group): 61%
- inhibiting ratio of flinches (Sprague-Dawley rats; Example 4, 100 mg/kg oral, vs control group): 61%
- inhibiting ratio of flinches (Sprague-Dawley rats; Example 5, 30 mg/kg oral): 48%
- motor function of the body ([2]; whole body administration of 100 mg/kg or more): significant decrease in motor function of the body
- side-effects [3]: somnolence and dizziness
